# Test results from ChEMBL document CHEMBL1201862, “PubChem BioAssay data set” (2004).
#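 These data come from cells grown in 96-well plates and exposed to compound for 48 hours at five concentrations. GI50 = concentration required for 50% inhibition of growth.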 Calls of active or inactive are those of the source. Rule as the data show it: active = GI50 up to about 1.1 µM and inactive = higher.
# Legend:
# Assay in all cases: DTP human tumour cell line panel, 48 h
# A498 = system: A498
# BT-549 = system: BT-549
# COLO 205 = system: COLO 205
# DU-145 = system: DU-145
# HL-60 = system: HL-60
# HOP-92 = system: HOP-92
# MDA-MB-231 = system: MDA-MB-231
# MDA-MB-435 = system: MDA-MB-435
# MDA-N = system: MDA-N
# NCI-H226 = system: NCI-H226
# OVCAR-5 = system: OVCAR-5
# SR = system: SR
# T47D = system: T47D
# ACHN = system: ACHN
# Hs-578T = system: Hs-578T
# NCI-H522 = system: NCI-H522
# SF-268 = system: SF-268
Compound,GI50 (A498),GI50 (BT-549),GI50 (COLO 205),GI50 (DU-145),GI50 (HL-60),GI50 (HOP-92),GI50 (MDA-MB-231),GI50 (MDA-MB-435),GI50 (MDA-N),GI50 (NCI-H226),GI50 (OVCAR-5),GI50 (SR),GI50 (T47D),GI50 (ACHN),GI50 (Hs-578T),GI50 (NCI-H522),GI50 (SF-268)
CC(C)(C)[Si](C)(C)OCC1OC(n2cnc3c(N)ncnc32)CC1OS(C)(=O)=O (stereo unspecified),43 µM (inactive),54 µM (inactive),> 100 µM (inactive),> 100 µM (inactive),64.9 µM (inactive),0.506 µM (active),22.1 µM (inactive),> 100 µM (inactive),> 100 µM (inactive),> 100 µM (inactive),89.1 µM (inactive),> 100 µM (inactive),> 100 µM (inactive),,,,
O=C(O)/C(Cc1ccnc2ccccc12)=N\O,> 100 µM (inactive),> 100 µM (inactive),> 100 µM (inactive),> 100 µM (inactive),> 100 µM (inactive),> 100 µM (inactive),> 100 µM (inactive),> 100 µM (inactive),> 100 µM (inactive),> 100 µM (inactive),> 100 µM (inactive),> 100 µM (inactive),> 100 µM (inactive),> 100 µM (inactive),> 100 µM (inactive),> 100 µM (inactive),> 100 µM (inactive)
CC1=C(C)[C@@]2(C)O[C@@]2(C)O[C@@]2(C)O[C@@]12C,> 100 µM (inactive),> 100 µM (inactive),> 100 µM (inactive),> 100 µM (inactive),,> 100 µM (inactive),> 100 µM (inactive),> 100 µM (inactive),> 100 µM (inactive),> 100 µM (inactive),> 100 µM (inactive),> 100 µM (inactive),> 100 µM (inactive),> 100 µM (inactive),> 100 µM (inactive),> 100 µM (inactive),> 100 µM (inactive)
CN1c2ccccc2C(=O)NC12CCN(CCCC(=O)c1ccc(F)cc1)CC2,,58.3 µM (inactive),16.3 µM (inactive),> 100 µM (inactive),30.7 µM (inactive),62.1 µM (inactive),40.9 µM (inactive),56.8 µM (inactive),88.7 µM (inactive),> 100 µM (inactive),> 100 µM (inactive),32.4 µM (inactive),29 µM (inactive),> 100 µM (inactive),> 100 µM (inactive),26.7 µM (inactive),17.8 µM (inactive)
COC(=O)CCC(C)C1CCC2C3CCC4CC5CCC4(C)C3(O5)C(Br)C(Br)C12C (stereo unspecified),> 100 µM (inactive),> 100 µM (inactive),> 100 µM (inactive),> 100 µM (inactive),2.55 µM (inactive),> 100 µM (inactive),> 100 µM (inactive),> 100 µM (inactive),> 100 µM (inactive),45.4 µM (inactive),> 100 µM (inactive),> 100 µM (inactive),61.9 µM (inactive),> 100 µM (inactive),> 100 µM (inactive),48.2 µM (inactive),> 100 µM (inactive)
O=c1cc(-c2cc(O)c(O)c(-c3c(O)cc4oc(-c5ccc(O)c(O)c5)cc(=O)c4c3O)c2)oc2cc(O)cc(O)c12,> 25 µM (inactive),> 25 µM (inactive),> 25 µM (inactive),> 25 µM (inactive),> 25 µM (inactive),> 25 µM (inactive),> 25 µM (inactive),> 25 µM (inactive),> 25 µM (inactive),> 25 µM (inactive),> 25 µM (inactive),> 25 µM (inactive),11.3 µM (inactive),,> 25 µM (inactive),,> 25 µM (inactive)
COC(=O)c1cc(NC2OCC(OC(C)=O)C(OC(C)=O)C2OC(C)=O)nc(SC)c1C(=O)OC (stereo unspecified),,> 100 µM (inactive),> 100 µM (inactive),> 100 µM (inactive),74 µM (inactive),> 100 µM (inactive),> 100 µM (inactive),> 100 µM (inactive),> 100 µM (inactive),,> 100 µM (inactive),> 100 µM (inactive),> 100 µM (inactive),> 100 µM (inactive),> 100 µM (inactive),> 100 µM (inactive),> 100 µM (inactive)
COC(=S)OC1CC(n2cnc3c(N)ncnc32)OC1CO[Si](C)(C)C(C)(C)C (stereo unspecified),22 µM (inactive),21.9 µM (inactive),17.7 µM (inactive),16.8 µM (inactive),> 100 µM (inactive),31 µM (inactive),18.8 µM (inactive),17 µM (inactive),18.5 µM (inactive),21.8 µM (inactive),20.6 µM (inactive),17.5 µM (inactive),11.8 µM (inactive),,,,
Oc1ccc(NCn2c(=S)sc3ccccc32)cc1,> 100 µM (inactive),> 100 µM (inactive),> 100 µM (inactive),> 100 µM (inactive),59.6 µM (inactive),33 µM (inactive),> 100 µM (inactive),> 100 µM (inactive),,,> 100 µM (inactive),,34.4 µM (inactive),> 100 µM (inactive),50 µM (inactive),17.7 µM (inactive),> 100 µM (inactive)
